The results in this text go back to US20100267796A1, “THERAPEUTIC AGENT FOR IRRITABLE BOWEL SYNDROME” (KYOWA HAKKO KOGYO CO., LTD., priority 2006, published 2010).

Each structure is given as a SMILES string.

Assay [1] relates to restraint stress-induced defecation. Kind of assay: Action on restraint stress-induced defecation. In kind it is in vivo, male Wistar rats. Particulars: 10 mg/kg p.o. 1 hour before restraint stress; measured 1 hour after stress initiation; rats, n=10; control of each sub-table 1.06-1.71 g. The protocol:
An experiment was carried out according to the method of Kishibayashi et al. [Japanese Journal of Pharmacology, Vol. 69, No. 4, pp. 495-502 (1993)]. In the experiment, male Wistar rats aged 6 to 7 weeks (supplied from Charles River Laboratories Japan, Inc.) were used. […] The rats were lightly anesthetized with diethyl ether, and the thoracic trunk and the forelimbs were wrapped with a tape to produce mild stress. One hour after stress initiation, the wet weight of fecal pellets was measured. Each drug solution was orally administered 1 hour before restraint stress. A test compound was suspended at a concentration of 2 mg/mL in an aqueous solution of 0.5 w/v % methyl cellulose 400 cP and orally administered at a volume of 5 mL/kg (at a dose of 10 mg/kg). In a control, an aqueous solution of 0.5 w/v % methyl cellulose 400 cP was administered. Ten rats were used in each group. […] YM060, a serotonin 5-HT3 receptor antagonist [The Journal of Pharmacology and Experimental Therapeutics, Vol. 259, No. 2, pp. 815-819 (1991), Astellas Pharma. Inc., online, internet (URL: […].com/jp/companry/news/2006/pdf/060131.pdf)], which is being applied as a therapeutic agent for irritable bowel syndrome, was administered at a dose of 0.1 mg/kg.

The test system of assay [2] is adenosine uptake in HEK293 cells. Briefly: Adenosine uptake inhibitory activity in HEK293 cells ([3H]adenosine uptake). The conditions noted are these: Homo sapiens, 1 min, [3H]adenosine uptake relative to 100% of control, HEK293 cells. In kind it is cell-based. On the procedure:
A test was conducted according to the method of Leung et al. [Biochemical Pharmacology, Vol. 70, pp. 355-362 (2005)]. HEK293 cells (ATCC, Registration No. CRL-1537) were subcultured in a Dulbecco's modified Eagle's medium (manufactured by Invitrogen Corporation) containing 10% of fatal calf serum in a CO2 incubator using a poly-L-lysine-coated 10-cm dish (manufactured by Asahi Techno Glass Corporation). The cultured cells were seeded in a poly-L-lysine-coated 24-well plate (manufactured by Asahi Techno Glass Corporation) and cultured until the cells become confluent. […] After incubation at room temperature for 15 minutes, 0.2 mL of a Na^+-free buffer containing 100 nmol/L of [^3H] adenosine (manufactured by GE Health Care Bioscience Corporation) and each compound at each of 50 nmol/L and 500 nmol/L was added to each well. After 1 minute, the reaction solution was removed with an aspirator, and the wells were washed twice with 0.5 mL of ice-cooled PBS (phosphate-buffered saline). Then, 0.5 mL of PBS containing 5% Triton X-100 was added to each well, and the cells were scraped with a scraper. The solution in each well was homogenized by passing through a 20 G injection needle ten times and transferred to a scintillation vial containing 4 mL of clear sol (manufactured by Nacalai Tesque Inc.). Further, the wells were washed with 0.5 mL of PBS containing 5% Triton X-100, and the washing solution was added to the same vial. After sufficient agitation, radioactivity was measured using a liquid scintillation counter (Aloka Co., Ltd., LSC-3500). A relative value to 100% of an uptake of a control was indicated by percentage.

Assay [3] has as its system loperamide-induced constipation. Briefly: Activity on loperamide-induced constipation. In kind it is in vivo, male SD rats. The conditions noted are these: doses of 0.01, 0.1 and 1 mg/kg p.o. 1 hour before loperamide 5 mg/kg; rats, n=15; vs. control group. The protocol: The therapeutic effect of the compounds of the present application on constipation was evaluated by the method described below. Compound 1-1 was used as a test compound.
To Compound 1-1, 0.5 w/v % methyl cellulose 400 (MC, manufactured by Wako Pure Chemical Industries, Ltd.) was added, followed by lightly mixing with a mixer (TTM-1, Shibata Scientific Technology Ltd.). Then, the resultant mixture was subjected to ultrasonic treatment (1 minute) with an ultrasonic cleaner (Sine Sonic UA100, Hitachi Kokusai Denki Engineering Co., Ltd.), and suspended by re-mixing with the mixer to prepare a suspension at a concentration of 0.2 mg/mL. […]
A day before the test, the rat tails were numbered for identification and the body weights were measured. […] The collected stools were dried (100° C., 6 hours) with a dryer (SH42, Yamato Scientific Co., Ltd.), and the weight was measured with an electronic balance (AB54, Mettler-Toledo AG). […]
With respect to the fecal amount, a dry weight was used, and an amount of stools for 0 to 8 hours was used as a measurement parameter. The fecal pellets were collected in a tare (aluminum foil) whose weight was previously measured, and the weight was calculated by subtracting the weight of the tare from the weight including the tare weight. […]

In the case of `C[C@](O)(C(=O)Nc1cccc2c1C(=O)c1sccc1CS2(=O)=O)C(F)(F)F` [Compound 1-1], the “Wet weight of fecal pellets” value in assay [1] was 0.27 ± 0.06 g. This compound also came in with an activity at 0.05 µM in assay [2] (50 nmol/L compound, n=2) of 68%. In assay [2] (500 nmol/L compound), the activity at 0.5 µM stood at 29%. Moreover, the “fecal amount (dry weight) 0 to 8 hours after the administration of loperamide” value in assay [3] was “significantly inhibits a decrease in fecal amount”.
